US20240307374A1, “FORMULATION OF FURIN INHIBITOR FOR INHALATION” (BP ASSET V, INC., priority 2021, published 2024)
Counter-ions that a name gives are not always drawn. Like-named read-outs stand apart in the source and are kept apart here.

What was measured:
[1] = Solubility profile of freeform Type D in citrate buffers; type: physicochemical; conditions: aqueous citrate buffer, aqueous buffer; citrate salt prepared in situ, summary statement; read-out: aqueous solubility
Protocol: Additional solids were added into the sample to generate suspension if clear solution was obtained. The suspension was equilibrated via stirring (1000 rpm) for 24 hours. The suspension was centrifuged to obtain precipitate and supernatants. Solubility and pH were tested for the supernatants after filtration, and the isolated precipitate was tested by XRPD.

[2] = Formulation solution stability experiments at 5° C.; type: physicochemical; conditions: thermodynamic from solid; for solubility at 2 days: aqueous buffer, 5° C., read-out: citrate solubility (supernatant concentration)
Protocol: The five formulations are shown in Table 7-2, and the characterization results are summarized in Example 7. The procedure is summarized below. • 1. […] Add about 149 mg citric acid into the volumetric flask of formulation 1/2/3/4. • 3. Add about 2037 mg of the corresponding sugar into the volumetric flask of formulation 2/3/4. […] Dilute to volume with water for formulation 1/2/3/4. • 5. Dilute to volume with pH=4.0 citrate/phosphate buffer for formulation 5. […] Sonicate the samples for about 2 mins, and filter with 0.45 µm filter to obtain a clear solution. • 7. Fill and seal about 0.7 mL solutions into 32 separate HPLC vials per each formulation and store under corresponding conditions.
The stability samples were stored at 5° C., 25° C., 40° C. and 60° C. for 28 days. After 1 day, 3 days, 7 days, 14 days and 28 days storage, the stability samples at 25° C., 40° C. and 60° C. were taken out for HPLC and pH tests. After 28 days storage, the stability samples at 5° C. were taken out for HPLC and pH tests.
Some of the stability samples at 5° C. became a suspension after storage for 37 days. The samples were then stirred (1000 rpm) at 5° C. for two days, resulting in all samples becoming a suspension. Three of the samples under each condition were characterized to determine the identity of precipitate, solubility of citrate salt at 5° C., and stability at 5° C. • 1. Sample 1 of formulations 1/2/3/4/5 after stirring was isolated, XPRD/^1H NMR of the solid was obtained, and purity/assay/concentration/pH of the supernatant were tested. • 2. Sample 2 of formulations 1/2/3/4/5 after stirring was stored at RT for about 1 hour, and the solid dissolved. Purity/assay/concentration of the solution was tested. • 3. Sample 3 of formulations 1/2/3/4/5 after stirring was sonicated at RT for about 2-3 mins, and the solid dissolved.

With `CC(=O)NCC1CCN(Cc2cc(Oc3ccc(N4CCN(CCC(=O)O)CC4)nc3)nc(-c3cc(Cl)cc(Cl)c3)c2)CC1` [citrate salt] the solubility at 24 h [1] was > 50 mg/mL, the solubility at 2 days ([2]; formulation solution with sugar (supernatant), presence of sugars, lowest value) was 10.4 mg/mL and the solubility at 2 days ([2]; formulation solution without sugars (supernatant), without sugars) was 16.9 mg/mL. The solubility ([2]; formulation solutions 1/2/3/4/5, aqueous buffer, rt, all solids dissolved once warmed up, read-out: solubility of citrate salt) was > 20 mg/mL.
